The values below come from US12264155B2, “Compounds, pharmaceutical compositions, and methods of preparing compounds and of their use as ATR kinase inhibitors” (Repare Therapeutics Inc., priority 2018, dated 2025).

Like-named read-outs stand apart in the source and are kept apart here.

This assay deals with ATR/ATRIP (Homo sapiens (Human), UniProt Q13535). The assay is described as follows: ATR/ATRIP enzymatic assay (AlphaScreen, phosphorylation of p53). (In general: Bead proximity is the source of the signal in Alpha formats.)
Chain of ATR/ATRIP (Q13535 whole entry): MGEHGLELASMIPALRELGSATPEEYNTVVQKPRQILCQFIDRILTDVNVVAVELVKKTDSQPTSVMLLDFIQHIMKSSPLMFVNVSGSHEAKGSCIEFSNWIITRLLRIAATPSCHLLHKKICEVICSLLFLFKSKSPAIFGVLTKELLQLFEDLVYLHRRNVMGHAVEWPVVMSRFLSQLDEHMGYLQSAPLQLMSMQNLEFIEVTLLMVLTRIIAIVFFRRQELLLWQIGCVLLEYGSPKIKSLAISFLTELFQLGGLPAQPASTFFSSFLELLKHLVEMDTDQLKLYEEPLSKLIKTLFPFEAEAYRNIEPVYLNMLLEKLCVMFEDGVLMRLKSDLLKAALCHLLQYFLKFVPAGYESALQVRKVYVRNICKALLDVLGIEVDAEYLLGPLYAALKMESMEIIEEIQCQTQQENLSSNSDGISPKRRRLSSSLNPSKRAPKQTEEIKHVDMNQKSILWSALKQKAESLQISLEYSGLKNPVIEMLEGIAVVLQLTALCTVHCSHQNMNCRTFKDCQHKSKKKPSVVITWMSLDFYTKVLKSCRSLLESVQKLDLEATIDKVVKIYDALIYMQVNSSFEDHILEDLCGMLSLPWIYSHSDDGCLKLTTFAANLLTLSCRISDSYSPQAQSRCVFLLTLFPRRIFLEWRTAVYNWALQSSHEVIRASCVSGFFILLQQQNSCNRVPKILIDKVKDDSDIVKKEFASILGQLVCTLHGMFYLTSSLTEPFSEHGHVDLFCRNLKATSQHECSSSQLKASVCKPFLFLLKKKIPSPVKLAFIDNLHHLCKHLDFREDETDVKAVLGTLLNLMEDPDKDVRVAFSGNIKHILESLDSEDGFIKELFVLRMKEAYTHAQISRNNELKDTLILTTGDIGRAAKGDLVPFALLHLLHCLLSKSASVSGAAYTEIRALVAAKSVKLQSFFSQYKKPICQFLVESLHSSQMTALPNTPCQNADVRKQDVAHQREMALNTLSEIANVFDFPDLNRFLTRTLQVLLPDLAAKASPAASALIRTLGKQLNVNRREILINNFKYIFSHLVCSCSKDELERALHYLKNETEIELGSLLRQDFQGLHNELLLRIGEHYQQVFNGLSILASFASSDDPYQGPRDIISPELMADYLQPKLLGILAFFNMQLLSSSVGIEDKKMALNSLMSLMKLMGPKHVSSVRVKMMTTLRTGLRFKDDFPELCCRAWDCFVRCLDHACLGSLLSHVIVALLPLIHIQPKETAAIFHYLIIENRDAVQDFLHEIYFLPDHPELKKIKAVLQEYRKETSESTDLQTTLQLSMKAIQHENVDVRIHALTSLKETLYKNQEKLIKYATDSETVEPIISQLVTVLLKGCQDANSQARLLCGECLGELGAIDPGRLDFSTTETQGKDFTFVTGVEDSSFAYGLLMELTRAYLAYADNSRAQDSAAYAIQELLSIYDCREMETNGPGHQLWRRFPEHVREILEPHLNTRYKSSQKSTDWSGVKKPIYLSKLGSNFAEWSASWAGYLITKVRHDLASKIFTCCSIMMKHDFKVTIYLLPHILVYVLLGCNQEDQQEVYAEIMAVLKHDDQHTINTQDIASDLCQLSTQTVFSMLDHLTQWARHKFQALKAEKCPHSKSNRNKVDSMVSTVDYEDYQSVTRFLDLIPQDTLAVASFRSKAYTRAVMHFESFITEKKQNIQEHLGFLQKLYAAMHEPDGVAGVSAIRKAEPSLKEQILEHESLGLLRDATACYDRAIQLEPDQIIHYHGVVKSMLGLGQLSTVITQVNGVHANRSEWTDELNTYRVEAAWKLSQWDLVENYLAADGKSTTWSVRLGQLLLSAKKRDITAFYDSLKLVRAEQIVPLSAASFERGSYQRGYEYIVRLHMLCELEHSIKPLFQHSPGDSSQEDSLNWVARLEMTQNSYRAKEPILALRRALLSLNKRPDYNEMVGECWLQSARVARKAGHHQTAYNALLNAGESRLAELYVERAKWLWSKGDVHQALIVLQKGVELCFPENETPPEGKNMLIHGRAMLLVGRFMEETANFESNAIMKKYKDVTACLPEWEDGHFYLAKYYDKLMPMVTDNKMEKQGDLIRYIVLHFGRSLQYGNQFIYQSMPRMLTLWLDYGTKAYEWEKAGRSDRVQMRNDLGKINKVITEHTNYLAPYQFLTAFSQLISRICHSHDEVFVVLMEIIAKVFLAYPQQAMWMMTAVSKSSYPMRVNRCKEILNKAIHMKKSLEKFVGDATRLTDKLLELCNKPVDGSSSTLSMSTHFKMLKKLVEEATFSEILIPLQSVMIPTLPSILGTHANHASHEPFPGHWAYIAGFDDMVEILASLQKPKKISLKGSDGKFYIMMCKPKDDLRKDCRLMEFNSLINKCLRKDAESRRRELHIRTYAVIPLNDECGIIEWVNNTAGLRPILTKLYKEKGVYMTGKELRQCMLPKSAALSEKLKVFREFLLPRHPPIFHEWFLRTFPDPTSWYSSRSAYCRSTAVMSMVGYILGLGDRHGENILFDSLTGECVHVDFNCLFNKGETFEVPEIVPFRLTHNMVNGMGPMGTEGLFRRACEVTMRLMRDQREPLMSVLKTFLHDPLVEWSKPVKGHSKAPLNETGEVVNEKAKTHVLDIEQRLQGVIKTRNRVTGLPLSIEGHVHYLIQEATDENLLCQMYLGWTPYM
Chain of ATR/ATRIP (Q8WXE1 whole entry partner): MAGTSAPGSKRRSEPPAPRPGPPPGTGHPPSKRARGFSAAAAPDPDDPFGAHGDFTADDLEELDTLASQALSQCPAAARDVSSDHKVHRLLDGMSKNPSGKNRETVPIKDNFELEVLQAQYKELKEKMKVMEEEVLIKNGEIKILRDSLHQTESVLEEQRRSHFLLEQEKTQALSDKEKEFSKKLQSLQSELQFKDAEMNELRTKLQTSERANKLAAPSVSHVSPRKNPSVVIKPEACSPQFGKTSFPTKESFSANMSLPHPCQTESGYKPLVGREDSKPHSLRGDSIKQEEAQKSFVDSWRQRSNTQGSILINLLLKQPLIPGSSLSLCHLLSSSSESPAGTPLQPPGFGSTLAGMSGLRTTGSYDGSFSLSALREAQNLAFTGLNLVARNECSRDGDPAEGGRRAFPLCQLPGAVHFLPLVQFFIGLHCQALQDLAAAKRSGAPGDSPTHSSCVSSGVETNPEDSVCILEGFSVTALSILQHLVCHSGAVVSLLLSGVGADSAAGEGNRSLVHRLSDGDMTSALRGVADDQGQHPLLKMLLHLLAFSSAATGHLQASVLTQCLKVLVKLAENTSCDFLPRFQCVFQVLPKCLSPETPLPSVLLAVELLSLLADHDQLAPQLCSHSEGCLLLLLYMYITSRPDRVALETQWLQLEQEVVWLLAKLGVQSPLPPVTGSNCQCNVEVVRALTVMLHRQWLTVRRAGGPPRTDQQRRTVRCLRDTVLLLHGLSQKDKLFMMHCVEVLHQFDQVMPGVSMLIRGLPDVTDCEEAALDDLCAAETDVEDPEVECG
Where [1] appears, read: read-out: ATR IC50, recombinant ATR/ATRIP 0.63 nM, 25 nM GST-p53, 3 μM ATP, 1 hour room temperature.

Experimental: Detection of ATR kinase activity utilized the AlphaScreen system to measure the phosphorylation of the substrate protein p53. […] Plates were incubated at room temperature in the dark for 4 hours and read on a BMG Polarstar using AlphaScreen dedicated filters. […] IC50 values were determined using a 4-parameter fit algorithm.

In the case of `C[C@@H]1COCCN1c1cc(C(C)(C)O)c2cnn(-c3cc[nH]n3)c2n1` [Compound 2, (R)-2-(6-(3-methylmorpholino)-1-(1H-pyrazol-3-yl)-1H-pyrazolo[3,4-b]pyridin-4-yl)propan-2-ol], under setting [1], the IC50 was 40 nM. Regarding `C[C@@H]1COCCN1c1cc(C(C)(C)C(N)=O)c2cnn(-c3cc[nH]n3)c2n1` [Compound 4, (R)-2-methyl-2-(6-(3-methylmorpholino)-1-(1H-pyrazol-3-yl)-1H-pyrazolo[3,4-b]pyridin-4-yl)propanamide], the half-maximal inhibitory concentration (IC50) under setting [1] stood at 56 nM. Still for that read-out and setting: for `C[C@@H]1COCCN1c1cc(C2(C#N)CCCCC2)c2cnn(-c3cc[nH]n3)c2n1` [Compound 5, (R)-1-(6-(3-methylmorpholino)-1-(1H-pyrazol-3-yl)-1H-pyrazolo[3,4-b]pyridin-4-yl)cyclohexane-1-carbonitrile] the value was 3 nM; for `C[C@@H]1COCCN1c1cc(-c2ccccc2S(C)(=O)=O)c2ccn(-c3cc[nH]n3)c2n1` [Compound 6, (R)-3-methyl-4-(4-(2-(methylsulfonyl)phenyl)-1-(1H-pyrazol-3-yl)-1H-pyrrolo[2,3-b]pyridin-6-yl)morpholine], 425 nM; for `Cc1cn(-c2cc[nH]n2)c2nc(N3CCOC[C@H]3C)cc(C(C)(C)C#N)c12` [Compound 7, (R)-2-methyl-2-(3-methyl-6-(3-methylmorpholino)-1-(1H-pyrazol-3-yl)-1H-pyrrolo[2,3-b]pyridin-4-yl)propanenitrile], 403 nM. Regarding `Cc1ccncc1-c1cc(N2CCOC[C@H]2C)nc2c1ccn2-c1cc[nH]n1` [Compound 9], the IC50 under setting [1] amounted to 37 nM. Still for that read-out and setting: for `C[C@@H]1COCCN1c1cc(C(C)(C)O)c2ccn(-c3cc[nH]n3)c2n1` [Compound 10] the value was 1600 nM; for `C[C@@H]1COCCN1c1cc(C(C)(C)C#N)c2ccn(-c3cc[nH]n3)c2n1` [Compound 11], 101 nM. On the same count and under the same terms, the figure for `C[C@@H]1COCCN1c1cc(C(C)(C)C(N)=O)c2ccn(-c3cc[nH]n3)c2n1` [Compound 12] is 379 nM. The same measure, in the same setting: for `C[C@@H]1COCCN1c1cc(-c2ccncn2)c2ccn(-c3cc[nH]n3)c2n1` [Compound 13] the value was 1650 nM; for `Cc1ccc(-c2cc(N3CCOC[C@H]3C)nc3c2ccn3-c2cc[nH]n2)nn1` [Compound 14], 1150 nM. For the molecule `C[C@@H]1COCCN1c1cc(-c2ccncc2)c2ccn(-c3cc[nH]n3)c2n1` [Compound 15], the concentration for half-maximal inhibition (IC50) under setting [1] was determined as 1870 nM. On the same count and under the same terms, the figure for `COc1ccc(-c2cc(N3CCOC[C@H]3C)nc3c2ccn3-c2cc[nH]n2)cn1` [Compound 16] is 1520 nM.

In the case of `C[C@@H]1COCCN1c1cc(Nc2cccnc2)c2ccn(-c3cc[nH]n3)c2n1` [Compound 17], under setting [1], the IC50 amounted to 1210 nM. On the same count and under the same terms, for `C[C@@H]1COCCN1c1cc(C(=O)N2CCOCC2)c2ccn(-c3cc[nH]n3)c2n1` [Compound 18] the value was 1940 nM.

Take `C[C@@H]1COCCN1c1cc(C(=O)N(C)Cc2ccccc2)c2ccn(-c3cc[nH]n3)c2n1` [Compound 19]: under setting [1], the IC50 was determined as 540 nM. As to `C[C@@H]1COCCN1c1cc(-c2ccccc2[S+](C)[O-])c2ccn(-c3cc[nH]n3)c2n1` (stereo partly drawn) [Compound 20], the IC50 under setting [1] is 229 nM.

As to `COc1ccc(-c2cc(N3CCOC[C@H]3C)nc3c2c(C)cn3-c2cc[nH]n2)cn1` [Compound 21], under setting [1], the 50% inhibitory concentration (IC50) was 828 nM. As for `C[C@@H]1COCCN1c1cc(N(C)c2cccnc2)c2ccn(-c3cc[nH]n3)c2n1` [Compound 22], the IC50 under setting [1] worked out at 876 nM.

`C[C@@H]1COCCN1c1cc(C(N)=O)c2cnn(-c3cc[nH]n3)c2n1` [Compound 23]: the IC50 under setting [1] was found to be 264 nM. As to `C[C@@H]1COCCN1c1cc(C(C)(C)C#N)c2cnn(-c3cc[nH]n3)c2n1` [Compound 24], under setting [1], the IC50 came out at 6 nM.

As for `C[C@@H]1COCCN1c1cc(C2(C#N)CCC2)c2cnn(-c3cc[nH]n3)c2n1` [Compound 27], under setting [1], the IC50 was determined as 135 nM. Still for that read-out and setting: the figure for `C[C@@H]1COCCN1c1cc(C2(C#N)CCCC2)c2cnn(-c3cc[nH]n3)c2n1` [Compound 28] is 4 nM. On the same count and under the same terms, the figure for `C[C@@H]1COCCN1c1cc(C2(C#N)CC2)c2ccn(-c3cc[nH]n3)c2n1` [Compound 29] is 580 nM; for `COC(C)(C)c1cc(N2CCOC[C@H]2C)nc2c1ccn2-c1cc[nH]n1` [Compound 30] it is 284 nM. Still for that read-out and setting: for `CC(C)c1cc(N2CCOC[C@H]2C)nc2c1ccn2-c1cc[nH]n1` [Compound 31] the value was 1420 nM. For the molecule `C[C@@H]1COCCN1c1cc(CC#N)c2cnn(-c3cc[nH]n3)c2n1` [Compound 32], under setting [1], the half-inhibitory concentration (IC50) came out at 54 nM. Take `C[C@@H]1COCCN1c1cc(-c2ccnn2C)c2ccn(-c3cc[nH]n3)c2n1` [Compound 34]: under setting [1], the 50% inhibitory concentration (IC50) is 451 nM.

`Cc1c[nH]nc1-n1ccc2c(C3(S(C)(=O)=O)CC3)cc(N3CCOC[C@H]3C)nc21` [Compound 36]: the half-maximal inhibitory concentration (IC50) under setting [1] was greater than 1000 nM. On the same count and under the same terms, the figure for `C[C@@H]1COCCN1c1cc(C2(S(C)(=O)=O)CC2)c2ccn(-c3cn[nH]c3C(F)(F)F)c2n1` [Compound 37] is greater than 1000 nM; for `C[C@@H]1COCCN1c1cc(C2(S(C)(=O)=O)CC2)c2ccn(-c3cn[nH]c3)c2n1` [Compound 38] it is greater than 1000 nM; for `COc1cc(-c2cc(N3CCOC[C@H]3C)nc3c2ccn3-c2cc[nH]n2)ccn1` [Compound 39] it is greater than 10000 nM. Same read-out and setting: the figure for `C[C@@H]1COCCN1c1cc(-c2cccs2)c2ccn(-c3cc[nH]n3)c2n1` [Compound 41] is greater than 10000 nM; for `C[C@@H]1COCCN1c1cc(I)c2cnn(-c3ccn[nH]3)c2n1` [Compound 42] it is 32 nM. Turning to `C[C@@H]1COCCN1c1cc(S(C)(=O)=O)c2cnn(-c3cc[nH]n3)c2n1` [Compound 44], the 50% inhibitory concentration (IC50) under setting [1] amounted to 27 nM.

Regarding `C[C@@H]1COCCN1c1cc(S(=O)(=O)C2CC2)c2cnn(-c3cc[nH]n3)c2n1` [Compound 45], under setting [1], the IC50 is 5 nM. Same read-out and setting: the figure for `C[C@@H]1COCCN1c1cc(-c2ccccc2F)c2cnn(-c3ccn[nH]3)c2n1` [Compound 48] is 5 nM; for `C[C@@H]1COCCN1c1cc(C(C)(C#N)C2COC2)c2cnn(-c3cc[nH]n3)c2n1` (stereo partly drawn) [Compound 49] it is 11 nM. Still for that read-out and setting: the figure for `C[C@@H]1COCCN1c1cc(S(=O)(=O)c2ccccc2)c2cnn(-c3cc[nH]n3)c2n1` [Compound 50] is 116 nM; for `COc1cc(N2CCOC[C@H]2C)nc2c1cnn2-c1cc[nH]n1` [Compound 51] it is 141 nM; for `C[C@@H]1COCCN1c1cc(N(C)S(C)(=O)=O)c2cnn(-c3cc[nH]n3)c2n1` [Compound 52] it is 8 nM. Turning to `C[C@@H]1COCCN1c1cc(N2CCCCS2(=O)=O)c2cnn(-c3cc[nH]n3)c2n1` [Compound 53], the IC50 under setting [1] was 9 nM. In the case of `C[C@@H]1COCCN1c1cc(N2CCCS2(=O)=O)c2cnn(-c3cc[nH]n3)c2n1` [Compound 54], the concentration for half-maximal inhibition (IC50) under setting [1] was 23 nM.

Regarding `C[C@@H]1COCCN1c1cc(C2(O)CCC(C)(C#N)CC2)c2cnn(-c3cc[nH]n3)c2n1` (stereo partly drawn) [Compound 59], the IC50 under setting [1] is 10 nM. Still for that read-out and setting: for `C[C@@H]1COCCN1c1cc(C2(O)CCN(C)CC2)c2cnn(-c3cc[nH]n3)c2n1` [Compound 60] the value was 37 nM; for `C[C@@H]1COCCN1c1cc(C2(O)CCC3(CC2)CSC3)c2cnn(-c3cc[nH]n3)c2n1` [Compound 61], 2 nM; for `C[C@@H]1COCCN1c1cc(C(C)(C)O)c2cnn(-c3ccccn3)c2n1` [Compound 63], 11 nM. For the molecule `Cc1ccnc(-n2ncc3c(C(C)(C)O)cc(N4CCOC[C@H]4C)nc32)c1` [Compound 64], the IC50 under setting [1] worked out at 92 nM. On the same count and under the same terms, for `C[C@@H]1COCCN1c1cc(C(C)(C)O)c2cnn(-c3cccc(N)n3)c2n1` [Compound 65] the value was 104 nM. Regarding `C[C@@H]1COCCN1c1cc(C(C)(C)C#N)c2cnn(Cc3ccn[nH]3)c2n1` [Compound 66], 448 nM corresponded to half-maximal inhibition (IC50). Turning to `C[C@@H]1COCCN1c1cc(C(C)(C)O)c2cnn(-c3cccnn3)c2n1` [Compound 67], under setting [1], the IC50 was found to be 198 nM. Same read-out and setting: the figure for `C[C@@H]1COCCN1c1cc(C(C)(C)C#N)c2cnn(-c3n[nH]cc3F)c2n1` [Compound 68] is 1340 nM.

Consider `C[C@@H]1COCCN1c1nc2c(cnn2-c2cc[nH]n2)c(C(C)(C)C#N)c1Cl` [Compound 69], for which the IC50 under setting [1] came to 554 nM. On the same count and under the same terms, for `C=Cc1nn(-c2cc[nH]n2)c2nc(N3CCOC[C@H]3C)cc(C(C)(C)C#N)c12` [Compound 71] the value was less than 5 nM. Regarding `C[C@@H]1COCCN1c1cc(-c2nncs2)c2cnn(-c3cc[nH]n3)c2n1` [Compound 72], the half-inhibitory concentration (IC50) under setting [1] is 94 nM. Same read-out and setting: for `C[C@@H]1COCCN1c1cc(C2(C#N)CCOCC2)c2cnn(-c3cc[nH]n3)c2n1` [Compound 73] the value was 3 nM; for `C[C@@H]1COCCN1c1cc(C2(C#N)CCSCC2)c2cnn(-c3cc[nH]n3)c2n1` [Compound 74], 8 nM. On the same count and under the same terms, for `C[C@@H]1COCCN1c1cc(C2(C#N)CC[S+]([O-])CC2)c2cnn(-c3cc[nH]n3)c2n1` (stereo partly drawn) [Compound 75] the value was 29 nM; for `C[C@@H]1COCCN1c1cc(C2(C#N)CCS(=O)(=O)CC2)c2cnn(-c3cc[nH]n3)c2n1` [Compound 76], 36 nM. Still for that read-out and setting: for `C[C@@H]1COCCN1c1cc(C2(C(N)=O)CCCCC2)c2cnn(-c3cc[nH]n3)c2n1` [Compound 77] the value was 5 nM.

Turning to `C[C@@H]1COCCN1c1cc(C2(CN)CCCCC2)c2cnn(-c3cc[nH]n3)c2n1` [Compound 78], the half-inhibitory concentration (IC50) under setting [1] turned out to be 24 nM. In the case of `C[C@@H]1COCCN1c1cc(C2(C#N)CN(C(=O)OC(C)(C)C)C2)c2cnn(-c3cc[nH]n3)c2n1` [Compound 79], the half-maximal inhibitory concentration (IC50) under setting [1] turned out to be 30 nM. Take `C[C@@H]1COCCN1c1cc(C2(C#N)CCN(C(=O)OC(C)(C)C)C2)c2cnn(-c3cc[nH]n3)c2n1` (stereo partly drawn) [Compound 80]: the IC50 under setting [1] was 6 nM. As to `C[C@@H]1COCCN1c1cc(C2(C#N)CCN(C(=O)OC(C)(C)C)CC2)c2cnn(-c3cc[nH]n3)c2n1` [Compound 81], the IC50 under setting [1] came out at 8 nM.

Turning to `C[C@@H]1COCCN1c1cc(C2(C#N)CNC2)c2cnn(-c3cc[nH]n3)c2n1` [Compound 82], the IC50 under setting [1] was determined as 17 nM.

`C[C@@H]1COCCN1c1cc(C2(C#N)CCNCC2)c2cnn(-c3cc[nH]n3)c2n1` [Compound 83]: under setting [1], the IC50 is 22 nM.

The IC50 is the concentration that gives 50% inhibition.
